Measured values reported in patent US5989326A, “Dyes for ink jet printing” (Ilford Imaging Switzerland GmbH, priority 1997, dated 1999).
“And” between values parts separate entries of the source, which are not always exact repeats. Identical values can stand only once.

Assay: Dye solubility in deionised water
Format: physicochemical
Settings: deionised water, stirred 1 hour at 50° C., cooled to 20° C.
Protocol: The dye was dispersed or solubilised in deionised water and the dispersion or solution was stirred for one hour at 50° C. Then the mixture was cooled down to 20° C., centrifuged and filtered. The solubility of the dye was calculated a) from UV/VIS spectral data of the mother liquor (solution) or b) based on the dried filter residue.

Compound	Solubility
COc1cc(N=Nc2c(S(=O)(=O)O)cc3ccc(Nc4ccc(C(=O)O)cc4)cc3c2O)c(OC)cc1N=Nc1ccc(C(=O)O)cc1 [Compound 14, reference compound]	17 g per 100 ml
COc1cc(N=Nc2ccc3c(S(=O)(=O)O)cc(S(=O)(=O)O)cc3c2)c(C)cc1N=Nc1c(S(=O)(=O)O)cc2ccc(NCCS(=O)(=O)O)cc2c1O [Compound 6]	> 20 g per 100 ml
COc1cc(N=Nc2cc(S(=O)(=O)O)c3cccc(S(=O)(=O)O)c3c2)c(C)cc1N=Nc1c(S(=O)(=O)O)cc2ccc(NCCS(=O)(=O)O)cc2c1O [Compound 4]	> 20 g per 100 ml
Cc1cc(N=Nc2c(S(=O)(=O)O)cc3ccc(NCCS(=O)(=O)O)cc3c2O)c(OCCO)cc1N=Nc1cccc(S(=O)(=O)O)c1 [Compound 2]	> 20 g per 100 ml
COc1cc(N=Nc2cccc(C(=O)O)c2)c(NC(C)=O)cc1N=Nc1c(S(=O)(=O)O)cc2ccc(Nc3ccc(C(=O)O)cc3)cc2c1O [Compound 12, reference compound]	3.6 g per 100 ml

Same assay, conditions: versus previously known black disazo dyes 12 and 14

Compound	Solubility, comparison in words
COc1cc(N=Nc2ccc3c(S(=O)(=O)O)cc(S(=O)(=O)O)cc3c2)c(C)cc1N=Nc1c(S(=O)(=O)O)cc2ccc(NCCS(=O)(=O)O)cc2c1O [Compound 6]	much higher solubility
COc1cc(N=Nc2cc(S(=O)(=O)O)c3cccc(S(=O)(=O)O)c3c2)c(C)cc1N=Nc1c(S(=O)(=O)O)cc2ccc(NCCS(=O)(=O)O)cc2c1O [Compound 4]	much higher solubility
Cc1cc(N=Nc2c(S(=O)(=O)O)cc3ccc(NCCS(=O)(=O)O)cc3c2O)c(OCCO)cc1N=Nc1cccc(S(=O)(=O)O)c1 [Compound 2]	much higher solubility

Assay: Absorption maximum in water
Format: physicochemical
Settings: not given
Excerpt: The absorption maxima and the results of the tests (B) to (D) are reported in Table 6 for the dyes of the invention and the comparative values for previously known disazo dyes in Table 7.

Compound	HD max in water
COc1cc(N=Nc2cccc(C(=O)O)c2)c(C)cc1N=Nc1c(S(=O)(=O)O)cc2ccc(N)cc2c1O [Compound 15, reference compound]	557 nm
COc1cc(N=Nc2cccc(C(=O)O)c2)c(NC(C)=O)cc1N=Nc1c(S(=O)(=O)O)cc2ccc(N)cc2c1O [Compound 11, reference compound]	557 nm
COc1cc(N=Nc2c(S(=O)(=O)O)cc3ccc(Nc4ccc(C(=O)O)cc4)cc3c2O)c(OC)cc1N=Nc1ccc(C(=O)O)cc1 [Compound 14, reference compound]	584 nm
COc1cc(N=Nc2ccc3c(S(=O)(=O)O)cc(S(=O)(=O)O)cc3c2)c(C)cc1N=Nc1c(S(=O)(=O)O)cc2ccc(NCCS(=O)(=O)O)cc2c1O [Compound 6]	575 nm
COc1cc(N=Nc2cccc(C(=O)O)c2)c(NC(C)=O)cc1N=Nc1c(S(=O)(=O)O)cc2ccc(NCCC(=O)O)cc2c1O [Compound 13, reference compound]	488 nm
COc1cc(N=Nc2cccc(S(=O)(=O)O)c2)c(C)cc1N=Nc1c(S(=O)(=O)O)cc2ccc(NCCS(=O)(=O)O)cc2c1O [Compound 1]	569 nm
COc1cc(N=Nc2cc(S(=O)(=O)O)c3cccc(S(=O)(=O)O)c3c2)c(C)cc1N=Nc1c(S(=O)(=O)O)cc2ccc(NCCS(=O)(=O)O)cc2c1O [Compound 4]	584 nm
Cc1cc(N=Nc2c(S(=O)(=O)O)cc3ccc(Nc4cccc(S(=O)(=O)O)c4)cc3c2O)ccc1N=Nc1cc(S(=O)(=O)O)c2cccc(S(=O)(=O)O)c2c1 [Compound 10, reference compound]	559 nm
COc1cc(N=Nc2cccc(C(=O)O)c2)c(NC(C)=O)cc1N=Nc1c(S(=O)(=O)O)cc2ccc(Nc3ccc(C(=O)O)cc3)cc2c1O [Compound 12, reference compound]	498 nm
Cc1cc(N=Nc2c(S(=O)(=O)O)cc3ccc(NCCS(=O)(=O)O)cc3c2O)c(OCCO)cc1N=Nc1cc(S(=O)(=O)O)c2cccc(S(=O)(=O)O)c2c1 [Compound 5]	583 nm
COc1cc(N=Nc2c(S(=O)(=O)O)cc3ccc(NCCS(=O)(=O)O)cc3c2O)c(OC)cc1N=Nc1cc(S(=O)(=O)O)c2cccc(S(=O)(=O)O)c2c1 [Compound 7]	595 nm and 491 nm
